According to article PMC7785802, “Therapeutic Efficacy of a Trichinella Spiralis Paramyosin-Derived Peptide Modified With a Membrane-Targeting Signal in Mice With Antigen-Induced Arthritis” (Frontiers in Microbiology, 2020):
Entries after “also recorded” stand apart in the source; their conditions may differ.

What was measured:
mouse ATDC5 cells = assay: Peptide binding to cell surface, flow cytometry; type: cell-based; conditions: 1 h room temperature, streptavidin-FITC; for binding to cell membrane of ATDC5 cells (flow cytometry) at 260 nmol: biotin-labeled peptide
Source text: The mouse ATDC5 chondrogenic cell line is an important chondrocyte model that has been widely used in the study of chondrocyte proliferation and differentiation. This cell line was used to evaluate the membrane-binding ability of the modified peptide, as articular cartilage (which contains chondrocytes) is one of the main cellular components in the joint cavity. The cells were purchased from Guangzhou Jennio Biotech Co., Ltd. (Guangzhou, China) and maintained in Dulbecco's Modified Eagle Medium (DMEM, ThermoFisher, America) supplemented with 10% fetal bovine serum (FBS, Gibco, Australia) at 37°C in a humidified atmosphere with 5% CO2. The 5th−10th passages of the cells were used in the study.
To assess the binding ability of the modified peptide to the cell membrane, the three peptides were labeled with biotin at the C-terminus. Cultured mouse ATDC5 cells were washed with phosphate-buffered saline (PBS) and incubated with various concentrations of the control, original or modified peptides (65, 130, and 260 nmol, respectively) for 1 h at room temperature. After washing twice with PBS to remove the unbound peptides, streptavidin-fluorescein isothiocyanate (FITC; eBioscience, California, USA) was added and incubated for 0.5 h at room temperature. The cells were washed and resuspended in PBS and then the binding of the peptides to the cell membrane was assessed by flow cytometry (BD Biosciences, California, USA). To further assess the retention of peptides on the surface of cells, the mouse ATDC5 cells were cultured in a 12-well culture plate which contains cell slides on the bottom. They were washed with PBS on the next day and then blocked with normal goat serum for 30 min at room temperature before incubation with various concentrations of peptides (260 nmol, 540 nmol, and 1.08 mmol). The binding of the peptides to the cell membrane was then assessed by staining with streptavidin-FITC (eBioscience). After being stained, the cells that had adhered to the cell slides were mounted using ProLong Gold Antifade reagent (ZSGB-BIO, Beijing, china) containing 4′,6-diamidino-2-phenylindole (DAPI, ThermoFisher, America) dye to stain the cell nuclei. They were then analyzed by confocal laser scanning microscopy (Leica, Germany).
Figure 3 Modified peptide non-specifically bound to the cell surface. (A) Binding of peptides to the surface of mouse ATDC5 cells measured by flow cytometry. All experiments were performed three times and data are presented as mean ± SD. n = 5, ***p < 0.001, ns: not significant (p > 0.05). (B) Binding of various concentrations of biotin-labeled peptides on the surface of mouse ATDC5 cells assessed by confocal laser scanning microscopy. Arrowheads indicate the binding of the modified peptides on the surface of mouse ATDC5 cells.

human C9 = assay: Zn2+-induced human C9 polymerization assay; type: biochemical; conditions: for inhibition of Zn2+-induced C9 polymerization at 5.24 μmol: peptide 5.24 μmol
Procedure: Certain concentrations of C9 can polymerize when induced by certain concentrations of Zn^2+. However, the polymerization can be suppressed when C9 binds to inhibitors. C9 polymerization assays were used to evaluate the inhibitory effect of the peptides on Zn^2+-induced polymerization of human C9. Briefly, 2 μg C9 was preincubated with the peptides in 20 mM Tris buffer (pH 7.2) at 37°C for 40 min and then 50 μM Zn^2+ was added to induce C9 polymerization at 37°C for 2 h. The samples were subjected to 2.5–15% polyacrylamide gel electrophoresis to assess the inhibitory effects of the peptides on human C9 polymerization; the gels were visualized by staining with Coomassie blue.
(§1) Figure 1 Modified peptide bound to human complement C9 and inhibited C9 polymerization-induced bio-function. (A) Microscale thermophoresis assay (NanoTemper) in which biomolecular interactions were quantitated by examining the motion of the molecules along a microscopic temperature gradient induced by an infrared laser. Changes in the molecular hydration shell, charge, or size are measured using a fluorescent probe (NT-647) bound covalently to the human C9. Binding of control, modified and original peptides to human C9 were studied. Data points indicate the differences in normalized fluorescence (%) generated by peptides binding to […], and curves indicate the calculated fits. […] Error bars represent the standard error of three independent measurements. […] Lane M: standard protein markers; lane 1: blank control (C9 without Zn^2+); lane 2: positive control (C9 with Zn^2+); lane 3: 5.24 μmol original peptide; lanes 4–6, 1.31, 2.62, and 5.24 μmol modified peptide, respectively; lane 7, 5.24 μmol control peptide. (C) Normal human serum (NHS)-induced complement-mediated hemolysis was inhibited by the modified and original peptides (2.62 and 5.24 μmol) compared to the control peptide. All experiments were performed three times and data are presented as mean ± SD. *p < 0.05, **p < 0.01.

[1] = test system: complement in normal human serum (NHS); rabbit erythrocytes; assay: NHS-induced complement-mediated hemolysis of rabbit erythrocytes (alternative pathway); type: cell-based; conditions: for inhibition of NHS-induced erythrocyte lysis, concentration dependence: NHS 1:12.5, peptide 1.31, 2.62, 5.24 μmol, Mg-EGTA, 37°C 40 min, then rabbit erythrocytes 1 × 10^8, 30 min 37°C, absorbance 412 nm; for inhibition of NHS-induced erythrocyte lysis, concentration dependence / inhibition of NHS-induced hemolysis compared to control peptide: three experiments; for inhibition of NHS-induced erythrocyte lysis at 5.24 μmol: peptide 5.24 μmol, NHS 1:12.5; for inhibition of NHS-induced hemolysis compared to control peptide: peptide 2.62 and 5.24 μmol, *p < 0.05, **p < 0.01
Procedure: Normal human serum (NHS) was collected from six healthy volunteers, and the donation procedure was approved by the Institutional Review Board (IRB) of Capital Medical University (approval number: 2016SY01). After venous blood was collected, it was clotted in serum separator tubes for 4 h at room temperature and then centrifuged at 1,000 g for 30 min to obtain the serum. The serum was divided into aliquots and stored at −80°C. To obtain normal mouse serum (NMS), blood was collected in the […] of mice under ether anesthesia and the serum was separated and stored as described above.
When rabbit erythrocytes are placed in xenogeneic serum (such as NHS or NMS), the alternative pathway of the complement system is activated, causing lysis of the rabbit erythrocytes. To evaluate the effects of the peptides on the complement activation-mediated erythrocyte lysis (involving the alternative complement pathway), NHS or NMS (1:12.5) was incubated with various concentrations of peptides (1.31, 2.62, and 5.24 μmol) in Mg-EGTA solution (5 mM MgCl2, 10 mM EGTA) at 37°C for 40 min before adding the mixture to freshly washed erythrocytes (1 × 10^8) in gelatin veronal-buffered saline (pH 7.4, containing 0.1% gelatin) for 30 min at 37°C. Lysis was stopped with cold Hanks' Balanced Salt Solution (HBSS^++) containing 10 mM ethylenediaminetetraacetic acid (EDTA). The samples were then centrifuged at 1,000 g for 10 min to obtain the supernatant, and the amount of released hemoglobin in the supernatant was determined by measuring the absorbance at 412 nm. The hemolytic activity relative to the water-induced lysis among the same number of erythrocytes was calculated.
as §1

[2] = 2 μg C9, 50 μM Zn2+, 37°C 2 h, PAGE, Coomassie blue

GKMSVMSVYKSVLS [control peptide, reference compound]
binding to cell membrane of ATDC5 cells (flow cytometry) at 260 nmol (mouse ATDC5 cells; 260 nmol): did not bind to the cell membrane | inhibition of Zn2+-induced C9 polymerization at 5.24 μmol (human C9; [2]): did not inhibit C9 polymerization | inhibition of NHS-induced erythrocyte lysis, concentration dependence [1]: no difference in the erythrocyte lysis among the three concentrations

Myr-GSSKSPSKKKKKKPG-ACP-VSMGKSLSSKVYVM [modified peptide, Ts-pmy-derived peptide modified with a membrane-targeting signal]
ATDC5 cells bound to peptide (mouse ATDC5 cells; C-terminally biotin-labeled peptide, 260 nmol, flow cytometry, n = 5): ~100% | binding to cell surface of ATDC5 cells (flow cytometry), concentration dependence (mouse ATDC5 cells; biotin-labeled peptide 65, 130, 260 nmol): bound to the cell surface of mouse ATDC5 cells in a dose-dependent manner | inhibition of Zn2+-induced C9 polymerization, concentration dependence (human C9; 2 μg C9, 20 mM Tris pH 7.2, 37°C 40 min preincubation, 50 μM Zn2+ 2 h, peptide 1.31, 2.62, 5.24 μmol, 2.5–15% PAGE): inhibited Zn^2+-induced C9 polymerization in a dose-dependent manner | inhibition of Zn2+-induced C9 polymerization at 2.62 μmol (human C9; peptide 2.62 μmol, 2 μg C9, 50 μM Zn2+, 37°C 2 h, PAGE, Coomassie blue): slightly | inhibition of Zn2+-induced C9 polymerization at 5.24 μmol (human C9; [2]): fully inhibited; also recorded: completely | inhibition of NHS-induced erythrocyte lysis, concentration dependence [1]: significantly inhibited in a dose-dependent manner | inhibition of NHS-induced erythrocyte lysis at 5.24 μmol [1]: greatest inhibition | inhibition of NHS-induced hemolysis compared to control peptide [1]: inhibited

VSMGKSLSSKVYVM [original peptide, tetradecapeptide derived from Trichinella spiralis paramyosin (Ts-pmy)]
binding to cell membrane of ATDC5 cells (flow cytometry) at 260 nmol (mouse ATDC5 cells; 260 nmol): did not bind to the cell membrane | inhibition of Zn2+-induced C9 polymerization at 5.24 μmol (human C9; [2]): fully inhibited | inhibition of NHS-induced erythrocyte lysis, concentration dependence [1]: significantly inhibited in a dose-dependent manner | inhibition of NHS-induced erythrocyte lysis at 5.24 μmol [1]: greatest inhibition | inhibition of NHS-induced hemolysis compared to control peptide [1]: inhibited
